Measured values published in US11524078B2, “Water-soluble macromolecular derivative of Venetoclax” (Delta-Fly Pharma, Inc., priority 2020, dated 2022).

Columns and labels:
[1] = test system: human histiocytic lymphoma cell line U937; experiment: Mouse model of human histiocytic lymphoma (U937), subcutaneous transplant; assay type: in vivo; details: U937 s.c. mice; (II) i.v. weekly x2 at 200 or 300 mg/kg; (I) oral daily two weeks 100 mg/kg
Method: The effects of the compounds on suppressing tumor growth were compared in three groups by using mice models which were generated by transplanting a human histiocytic lymphoma cell line U937 subcutaneously into mice. The three groups were the following: a control group; a group whose mice received the compound of formula (II) intravenously at a frequency of once a week for two weeks at a dose of 200 mg/kg or 300 mg/kg; and a group whose mice received the compound of formula (I) orally every day for two weeks at a dose of 100 mg/kg.

[2] = test system: human acute myelocytic leukemia cell line OCI-AML-2; experiment: Mouse model of human acute myelocytic leukemia (OCI-AML-2), subcutaneous transplant; assay type: in vivo; details: OCI-AML-2 s.c. mice; (II) i.v. weekly x2 at 100-300 mg/kg; (I) oral daily two weeks 100 mg/kg
Method: The effects of the compounds on suppressing tumor growth were compared in mice groups by using mice models which were generated by transplanting a human acute myelocytic leukemia cell line OCI-AML-2 subcutaneously into mice. The mice groups were the following: a control group; groups whose mice received the compound of formula (II) intravenously once every week for two weeks at a dose of 100 mg/kg, 200 mg/kg, or 300 mg/kg; and a group whose mice received the compound of formula (I) orally every day for two weeks at a dose of 100 mg/kg (see FIG. 5(1)).

[3] = test system: human acute myelocytic leukemia cell line MV4-11; experiment: Cytotoxic effect, human acute myelocytic leukemia cell line MV4-11; assay type: cell-based; details: Opti-MEM reduced-serum medium used for compound of formula (I), read-out: IC50 (50% inhibition percentage)
Excerpt: (§1) Concentration dependence of the cytotoxic effect of the compound of formula (I) and the compound of formula (II) was examined as described below.

[4] = human protein; cited from earlier work
[5] = Solubility in water of compounds; assay type: physicochemical; details: (I): 10 mg/mL in physiological saline containing 0.5% CMC, sonication, (II): 10 and 20 mg/mL in physiological saline at 40° C. to 50° C.
[6] = test system: human pancreatic cancer cell line PANC-1; experiment: Cytotoxic effect, human pancreatic cancer cell line PANC-1; details: PANC-1, read-out: IC50 (50% inhibition percentage)
Excerpt: as §1

caspase = experiment: Caspase activity of MV4-11 cells; assay type: cell-based, human
Method: According to the above described Pharmaceutical Interview Form, cytochrome C that flowed out from mitochondria into cytoplasm activates caspase, thereby inducing apoptosis. Therefore, human acute myelocytic leukemia cells MV4-11 were plated on a culture medium and cultured overnight. Then, the compound of formula (I) was added at concentrations of 1 pM, 0.01 nM, 0.1 nM, 1 nM, 0.01 μM, 0.1 μM, and 1 μM; and the compound of formula (II) was added at concentrations of 1 pM, 0.01 nM, 0.1 nM, 1 nM, 0.01 μM, and 0.1 μM. After incubation for 24 hours, the culture medium was collected and caspase activity was examined by a conventional known technique.

BAX = BAX expression in cytoplasm and mitochondrial fractions of MV4-11 cells; assay type: cell-based, human; details: (I) 0.1 and 1 μM, (II) 0.01, 0.1 and 1 μM, incubation five hours
Method: Human acute myelocytic leukemia cells MV4-11 were plated on a culture medium and cultured overnight. Then, the compound of formula (I) was added at concentrations of 0.1 μM and 1 μM, and the compound of formula (II) was added at concentrations of 0.01 μM, 0.1 μM, and 1 μM. After incubation for five hours, a cytoplasm fraction and a mitochondrial fraction were extracted and BAX expression was examined.

[7] = test system: human lung cancer cell line A549; experiment: Cytotoxic effect, human lung cancer cell line A549; details: A549, read-out: IC50 (50% inhibition percentage)
Excerpt: as §1

cytochrome C = experiment: Cytochrome C release from mitochondria into cytoplasm in MV4-11 cells; assay type: cell-based, human; details: (I) 0.1 and 1 μM, (II) 0.01, 0.1 and 1 μM, incubation five hours
Method: In the above described Pharmaceutical Interview Form, “cytochrome C” that flowed out from mitochondria into cytoplasm is described as “pro-apoptotic protein.” Therefore, human acute myelocytic leukemia cells MV4-11 were plated on a culture medium and cultured overnight. Then, the compound of formula (I) was added at concentrations of 0.1 μM and 1 μM, and the compound of formula (II) was added at concentrations of 0.01 μM, 0.1 μM, and 1 μM. After incubation for five hours, a cytoplasm fraction and a mitochondrial fraction were extracted and cytochrome C release was examined.

CC1(C)CCC(CN2CCN(c3ccc(C(=O)NS(=O)(=O)c4ccc(NCC5CCOCC5)c([N+](=O)[O-])c4)c(Oc4cnc5[nH]ccc5c4)c3)CC2)=C(c2ccc(Cl)cc2)C1 [compound of formula (I), Venetoclax]
effect of suppressing tumor growth [1]: no effect of suppressing growth of U937 | effect on suppressing weight change [2]: suppressed weight change | IC50 [3]: 160 nM | binding percentage to protein [4]: ≥ 99.9% | state of preparation in aqueous vehicle [5]: uniform bright yellow opaque suspension | IC50 [6]: 990 nM | caspase activity, concentration dependence (caspase; 1 pM to 1 μM (I), 1 pM to 0.1 μM (II), incubation 24 hours): increased depending on the concentration | caspase activity at 0.1 μM, (I) versus (II) (caspase; concentration in terms of Venetoclax 0.1 μM, 24 hours): exactly the same caspase activity | BAX in the cytoplasm fraction (BAX): concentration-dependent decrease of BAX in the cytoplasm fraction | IC50 [7]: 990 nM | amount of cytochrome C released from mitochondria into cytoplasm (cytochrome C): increased depending on the concentration
